Data taken from article PMC9147192, “Small Molecule Arranged Thermal Proximity Coaggregation (smarTPCA)—A Novel Approach to Characterize Protein–Protein Interactions in Living Cells by Similar Isothermal Dose–Responses” (International Journal of Molecular Sciences, 2022).

Biological target: T1, UBE2O (Homo sapiens, UniProt Q9C0C9)
T1 construct: endogenous in cells; host or cells: HL-60 (ATCC CCL-240)
T1 sequence (Q9C0C9 1-1292): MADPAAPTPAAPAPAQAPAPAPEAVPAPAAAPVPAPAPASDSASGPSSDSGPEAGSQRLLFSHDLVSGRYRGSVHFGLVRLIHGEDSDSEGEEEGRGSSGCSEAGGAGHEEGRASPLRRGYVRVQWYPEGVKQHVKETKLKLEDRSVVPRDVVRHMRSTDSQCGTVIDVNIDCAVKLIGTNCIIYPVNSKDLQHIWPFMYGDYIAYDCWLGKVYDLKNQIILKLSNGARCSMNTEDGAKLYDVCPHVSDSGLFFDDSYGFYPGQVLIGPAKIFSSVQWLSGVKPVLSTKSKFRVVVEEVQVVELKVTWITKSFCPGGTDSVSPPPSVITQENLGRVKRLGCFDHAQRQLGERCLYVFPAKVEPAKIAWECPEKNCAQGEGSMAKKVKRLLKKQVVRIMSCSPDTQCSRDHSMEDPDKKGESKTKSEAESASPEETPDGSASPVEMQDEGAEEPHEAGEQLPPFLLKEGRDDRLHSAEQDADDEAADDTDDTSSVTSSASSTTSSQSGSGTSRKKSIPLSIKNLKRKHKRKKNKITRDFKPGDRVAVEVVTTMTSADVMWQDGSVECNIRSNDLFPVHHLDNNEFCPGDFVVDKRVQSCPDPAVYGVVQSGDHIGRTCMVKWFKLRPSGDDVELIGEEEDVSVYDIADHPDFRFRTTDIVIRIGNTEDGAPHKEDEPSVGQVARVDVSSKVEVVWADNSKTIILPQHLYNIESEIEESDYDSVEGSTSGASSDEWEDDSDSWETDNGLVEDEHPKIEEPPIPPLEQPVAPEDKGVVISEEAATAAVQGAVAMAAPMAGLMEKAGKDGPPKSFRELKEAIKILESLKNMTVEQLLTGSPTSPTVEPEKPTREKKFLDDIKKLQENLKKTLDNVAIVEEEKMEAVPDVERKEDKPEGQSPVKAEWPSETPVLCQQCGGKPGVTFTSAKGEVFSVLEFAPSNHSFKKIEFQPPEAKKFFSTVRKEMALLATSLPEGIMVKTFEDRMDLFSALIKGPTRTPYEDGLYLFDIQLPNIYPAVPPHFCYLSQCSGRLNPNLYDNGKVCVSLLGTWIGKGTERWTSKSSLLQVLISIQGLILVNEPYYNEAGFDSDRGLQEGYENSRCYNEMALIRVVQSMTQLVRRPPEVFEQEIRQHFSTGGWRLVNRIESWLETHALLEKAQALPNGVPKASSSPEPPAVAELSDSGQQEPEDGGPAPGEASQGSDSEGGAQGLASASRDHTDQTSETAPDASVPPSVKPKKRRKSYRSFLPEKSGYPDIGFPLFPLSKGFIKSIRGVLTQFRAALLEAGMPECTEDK
Experiment: TPP-CCR in living HL-60 cells
Type: cell-based

**Q.** For Cc1cnc(Nc2ccc(F)cc2Cl)nc1-c1c[nH]c(C(=O)N[C@H](CO)c2cccc(Cl)c2)c1 [ERK 11e], which Hill slope (TPP-CCR, living cells, UBE2O) is on record?
**A.** 0.37

**Q.** What about the “Hill slope (UBE2O)” value (living HL-60 cells, […] °C, TMT-MS) of the same compound?
**A.** 0.37

**Q.** And the EC50 (living HL-60 cells, […] °C, TMT-MS, read-out: pEC50 (UBE2O) (converted))?
**A.** 186 nM
